Data from publication PMC3493622 (Organic & biomolecular chemistry, 2012).
Read-outs that look alike come from different tables or passages of the source.

Key:
[1] = SRB cytotoxicity / cell survival under nitrite assay conditions; assay type: cell-based, murine; settings: mouse, RAW 264.7 cells
[2] = system: NFκB (luciferase reporter in human embryonic kidney cells 293); test: NFκB luciferase assay; assay type: cell-based; settings: for NFκB assay % inhibition: screening concentration 50 μM, TNFα; for NFκB inhibitory activity (in words): at 50 μM
[3] = system: NO production (iNOS) in LPS-stimulated RAW 264.7 cells; assay type: cell-based, murine; settings: for Nitrite assay % inhibition: screening concentration 50 μM, LPS 1 μg/mL, 20 h; for nitrite inhibitory activity (in words): tested up to 50 μM
HEK293 = test: Cell survival in the NFκB assay; assay type: cell-based, Human; settings: for NFκB assay % survival: 50 μM, cell survival in comparison with vehicle-treated controls
RAW 264.7 cells = test: SRB cytotoxicity / cell survival under nitrite assay conditions; assay type: cell-based, murine; settings: for Nitrite assay % survival: 50 μM, cell survival in comparison with vehicle-treated controls, SRB

Nc1ccccc1C#Cc1cc(F)cc(F)c1 [10ae′, 2-((3,5-Difluorophenyl)ethynyl)aniline]
IC50 at 20 h [1]: 42.9 ± 5.1 µM

c1ccc(-c2cc3ccccc3[nH]2)cc1 [Compound 1, 2-phenylindole]
NFκB assay % inhibition ([2]; 6 h, 50 µM): 72.3±5%
Nitrite assay % inhibition ([3]; 50 µM): 60.4±2.2%
NFκB assay % survival (HEK293): 113.1±2.8%
Nitrite assay % survival (RAW 264.7 cells): 87.3±3.9%

C#CCn1c(-c2ccccc2)cc2ccccc21 [Compound 2d, 2-Phenyl-N-propargylindole]
IC50 at 20 h [1]: 46.8 ± 1.9 µM

CC(C)(C)OC(=O)n1c(-c2ccccc2)cc2ccccc21 [Compound 2f, N-Boc-2-phenylindole]
IC50 at 20 h [1]: 38.2 ± 5 µM

c1ccc(C2Cc3ccccc3N2)cc1 (stereo not drawn) [Compound 3, 2-phenylindoline]
nitrite inhibitory activity (in words) [3]: essentially inactive

CON=Cc1c(-c2ccccc2)[nH]c2ccccc12 [Compound 6a, 2-Phenyl-1H-indole-3-carboxaldehyde O-methyl oxime]
IC50 at 20 h [1]: 48 ± 5.1 µM

c1ccc(-c2cc3ccccc3[nH]2)cc1 [Compound 10aa, 2-phenyl-1H-indole]
NFκB assay % survival (HEK293): 79.8±5.9%
Nitrite assay % survival (RAW 264.7 cells): 66.7±4.0%

Cc1ccccc1-c1cc2ccccc2[nH]1 [Compound 10ab, 2-o-Tolyl-1H-indole]
NFκB inhibitory activity (in words) [2]: inactive
IC80 ([3]; Mus musculus, RAW264.7, read-out: IC80 concentration (nitrite inhibition)): 9.3 µM
cell survival at the IC80 concentration (RAW 264.7 cells; at 9.3 μM (IC80 of nitrite inhibition)): 94.5%
IC50 at 20 h [1]: 32.9 ± 2.5 µM

Cc1ccc(-c2cc3ccccc3[nH]2)cc1 [Compound 10ac, 2-p-Tolyl-1H-indole]
nitrite inhibitory activity (in words) [3]: essentially inactive

COc1cc(OC)cc(-c2cc3ccccc3[nH]2)c1 [Compound 10ag, 2-(3,5-Dimethoxyphenyl)-1H-indole]
NFκB inhibitory activity (in words) [2]: inactive

Cc1ccccc1-c1cc2cc([N+](=O)[O-])ccc2[nH]1 [Compound 10bb, 5-Nitro-2-o-toyl-1H-indole]
NFκB assay % inhibition ([2]; 6 h): 60.6±3.2%
Nitrite assay % inhibition [3]: 45.9±3.0%
NFκB assay % survival (HEK293): 119.2±8.6%
Nitrite assay % survival (RAW 264.7 cells): 89.2±9.5%

N#Cc1ccc2cc(-c3ccccc3)[nH]c2c1 [Compound 10ea, 6-Carbonitrile-2-phenyl-1H-indole]
NFκB assay % inhibition ([2]; 6 h): 50.6±3.8%
Nitrite assay % inhibition [3]: 45.6±2.5%
NFκB assay % survival (HEK293): 72.4±6.2%
Nitrite assay % survival (RAW 264.7 cells): 78.1±3.8%

c1ccc(-c2nc3ccccc3[nH]2)cc1 [Compound 11, 2-phenylbenzimidazole, reference compound]
inhibition at 50 µM ([2]; Homo sapiens, 6 h, read-out: NFκB assay % inhibition): 73.6 ± 3.1%
IC50 ([2]; Homo sapiens, 6 h, read-out: NFκB assay IC50): 11.2 ± 0.3 µM
inhibition at 50 µM ([3]; Mus musculus, RAW264.7, 20 h, read-out: Nitrite assay % inhibition): 13.8 ± 6.4%
viability at 50 µM (HEK293; Homo sapiens, HEK293, read-out: NFκB assay % survival): 86.2 ± 18%
viability at 50 µM (RAW 264.7 cells; Mus musculus, RAW264.7, 20 h, read-out: Nitrite assay % survival): 97.7 ± 5.6%
